Compared with O=C(NCCN1CCC2(CC1)C(=O)NCN2c1ccccc1)c1cccs1, CNC(=O)c1ccccc1Nc1nc(Nc2ccc3c(c2)CCN(CCF)CC3)ncc1Cl is lower in melting point: 194 °C for the first, 170 to 174 °C for the second.

First: Cc1ccc(C)c(OCCCC(C)(C)C(=O)Nc2cccc(-c3nnc(C)o3)c2)c1
Second: COC(=O)c1ccc(-c2nnc(-c3ccc(C(C)(C)C)cc3)o2)c([N+](=O)[O-])c1
The melting point of the first is lower: 90 to 92 °C for the first, 142 to 143 °C for the second.

Compared with COc1ccc(C)cc1OCCO, C=C(C(=O)O)c1ccc(OC)c(OC)c1 is higher in melting point: 42 to 43 °C for the first, 128 °C for the second.

First: O=C(NC(=O)c1ccccc1Cl)Nc1cc(C(F)(F)F)c(Br)cc1Br
Second: O=C(O)c1ccccc1C(=O)c1ccc(Cl)c(S(=O)(=O)Cl)c1
The melting point of the first is higher: 191 °C for the first, 176 to 177 °C for the second.

Compared with O=C(O)Cc1ccc2oc(-c3ccc(Cl)cc3)nc2c1, O=c1oc(-c2ccccc2)nc2cccc(F)c12 is lower in melting point: 241 to 242 °C for the first, 162 to 164 °C for the second.

First: CC(C)(C)c1cc(-n2nc3ccc(Cl)cc3n2)c(O)c(C(C)(C)c2ccc(Cl)cc2)c1
Second: Cc1cc(C)c(C(=O)c2ccc(Cl)cc2)c(Cl)c1
The melting point of the first is higher: 130 to 131 °C for the first, 41 to 52 °C for the second.

First: O=C(O)C#CC(O)(c1ccc(OCc2ccc3ccccc3n2)cc1)c1ccc(OCc2ccc3ccccc3n2)cc1
Second: O=C(OCCOC(c1ccccc1)(c1ccccc1)c1ccccc1)Oc1ccc([N+](=O)[O-])cc1
The melting point of the first is higher: 169 to 172 °C for the first, 136 to 141 °C for the second.

First: COc1ccc(S(=O)(=O)Nc2ccccc2/C=C/c2ccncc2C)cc1
Second: C=CCOc1ccc(S(=O)(=O)c2ccc(C)nc2Nc2c(C)cc(C)cc2C)cc1
The melting point of the first is higher: 183 to 185 °C for the first, 138 to 140 °C for the second.

Compared with CCC(NS(C)(=O)=O)P(=O)(Oc1ccccc1)Oc1ccccc1 (stereo unspecified), COc1cccc(N=C(NC#N)Oc2ccccc2)c1 is higher in melting point: 136 to 139 °C for the first, 170 to 171 °C for the second.

First: CCOc1cc2nc(NC)nc(-c3cccc(Br)c3)c2cc1OCC
Second: CCOC(=O)c1cccc(-c2nc(-c3cc(C)sc3C)cs2)c1
The melting point of the first is higher: 130 to 132 °C for the first, 115 to 116 °C for the second.

First: O=c1ccc(Oc2ccc(Cl)cc2)n[nH]1
Second: O=C(NN=Cc1c(O)cccc1Cl)c1ccc(Cl)cc1
The melting point of the first is lower: 202 °C for the first, 273 to 277 °C for the second.

First: O=C(O)c1ccc(C2OC23Cc2ccccc2C3=O)cc1 (stereo unspecified)
Second: Nc1ccccc1C(=O)c1ccc(F)cc1
The melting point of the first is higher: 220 °C for the first, 125 to 127 °C for the second.

First: CC1Cc2ccccc2C(C(S)(C#N)C(=O)O)=N1 (stereo unspecified)
Second: N#CNC(=N)NC1CCCc2ccccc21 (stereo unspecified)
The melting point of the first is higher: 159 to 160 °C for the first, 153 to 155 °C for the second.

First: O=C(O)CCC(=NO)c1ccc(-c2ccc(F)cc2)cc1
Second: Cc1ccc(C(CCCOC(=O)Nc2ccccc2)=NNC(N)=S)cc1
The melting point of the first is lower: 152 to 153 °C for the first, 170 to 173 °C for the second.

First: Cc1ccc2[nH]c(=O)cc(CCO)c2c1
Second: COc1cc2[nH]ccc2cc1Br
The melting point of the first is higher: 252 to 255 °C for the first, 110 to 111 °C for the second.

First: COC1=CC(=O)C(O)=C(CCCCCCC/C=C\CCCCCCCC2=C(O)C(=O)C(C)=C(OC)C2=O)C1=O
Second: CCCCc1nc2c(N)nc3ccccc3c2n1CCCCCCCCNS(=O)(=O)c1ccccc1
The melting point of the first is lower: 88 to 90 °C for the first, 143 to 144 °C for the second.

Compared with c1ccc(-c2n[nH]c3c2Cc2ccccc2-3)cc1, COC(=O)c1c(C)nc(-c2ccccc2)nc1-c1cccc([N+](=O)[O-])c1 is lower in melting point: 234 to 236 °C for the first, 128 to 130 °C for the second.

First: CCNC(=O)N1C[C@@H](c2c[nH]c3ccccc23)[C@H](c2cn3c4c(cccc24)CCC3)C1
Second: O=c1c2ccccc2oc2c(C3CCCCC3)cccc12
The melting point of the first is higher: 278 to 279 °C for the first, 122 to 124 °C for the second.

First: CCCc1n[nH]c(=O)c2c(C)ncn12
Second: CCn1nc(C)c2c1C(=O)NCC(c1ccccc1O)=N2
The melting point of the first is lower: 168 to 170 °C for the first, 220 °C for the second.

First: CCc1cc(OC)cc(=O)o1
Second: CCn1c(-c2ccc(OC)c(OC)c2)cc(=S)n(C)c1=O
The melting point of the first is lower: 54 to 55 °C for the first, 147 to 150 °C for the second.

First: CC(C)(C)OC(=O)N1CCN(C(=O)CCl)CC1
Second: Cc1c(C)c(N2CCN(C(=O)OC(C)(C)C)CC2)c(C)c2c1OC(C)(C)C2N1CCCC1 (stereo unspecified)
The melting point of the first is lower: 68 to 70 °C for the first, 127 to 128 °C for the second.

First: Nc1nc2ccc(SC(F)(F)F)cc2s1
Second: O=c1nc(C2CC2)sc2ccccc12
The melting point of the first is higher: 155 °C for the first, 120 °C for the second.

Compared with COc1cc2c3c(c1)c(=O)c(Cc1cccnc1)cn3-c1cc(Br)ccc1S2, COC(=O)C(c1cc2c(cc1Cl)OCO2)c1cn(C)c2cc(Br)ccc12 (stereo unspecified) is higher in melting point: 169 to 173 °C for the first, 183 to 185 °C for the second.

Compared with COc1ccc(C(=O)c2ccc(Br)cc2)c(F)c1, Cn1c(CC(=O)O)ccc1C(=O)c1ccc([N+](=O)[O-])cc1 is higher in melting point: 125 to 126 °C for the first, 192 to 195 °C for the second.

First: O=C(Nc1ccccc1SCc1ncon1)OCc1ccccc1
Second: COCCc1c[nH]c(-c2ccc(OCc3ccccc3)cc2)n1
The melting point of the first is lower: 41 °C for the first, 154 to 156 °C for the second.

Compared with COc1ccc(COc2ccc3cc(C(C)C(=O)O)ccc3c2)cc1OC1CC2CCC1C2 (stereo unspecified), CCOc1cc(C(=CC#N)c2ccc(NC(C)=O)cc2)ccc1OC is higher in melting point: 125 to 128 °C for the first, 175 to 177 °C for the second.

Compared with CCOP(=O)(Cc1ccc2cc(CP(=O)(OCC)OCC)ccc2c1)OCC, C=CCOc1ccc(CC(=O)NCCCC)cc1 is lower in melting point: 151 to 153 °C for the first, 87 to 89 °C for the second.

First: COc1nc2cc([N+](=O)[O-])c(C)c(C(=O)N3CCCNCC3)c2nc1OC
Second: CCc1[nH]n(C2CCCC2)c2nc(-c3cc(C)nc(-n4ccnc4)c3)nc(=O)c1-2
The melting point of the first is lower: 141 to 143 °C for the first, 277 to 278 °C for the second.

Compared with CC(C)[C@H](OCc1ccccc1)[C@H]1[C@H]([N+](=O)[O-])[C@H](c2ccccc2)N[C@@H]1C(=O)NCC(=O)O, CC1(C)N[C@H](Cc2ccc(Br)cc2)[C@@H]2C(=O)N(Cc3ccccc3)C(=O)[C@@H]21 (racemic) is higher in melting point: 71 to 72 °C for the first, 142 to 143 °C for the second.

Compared with CCn1c(=O)ccn(-c2ccc([N+](=O)[O-])cc2)c1=O, CCOC(=O)CCc1cc(-c2ccccc2)n(-c2ccc(S(C)(=O)=O)cc2)n1 is lower in melting point: 182 °C for the first, 96.5 to 99.1 °C for the second.

First: CCCCc1nc2ccn(Cc3ccc(C(=O)O)cc3)c(=O)c2n1Cc1ccc(-c2ccccc2-c2nnn[nH]2)cc1
Second: CN(Cc1ccc(CCC(=O)Nc2ccc(-c3ccc(Cl)cc3)cc2)cc1)C1CCOCC1
The melting point of the first is higher: greater than 300 °C for the first, 167 to 173 °C for the second.

First: O=[N+]([O-])c1cnn2c1-c1ccccc1NC2c1ccc(Cl)cc1 (stereo unspecified)
Second: O=c1[nH]c(=Cc2ccc3ccccc3n2)c(=O)[nH]c1=Cc1ccc(Cl)cc1
The melting point of the first is lower: 217 to 219 °C for the first, 348 to 349 °C for the second.

First: NC(C(=O)CCC(=O)O)c1ccc(Nc2n[nH]c3ncnc(Nc4cccc(Cl)c4)c23)cc1 (stereo unspecified)
Second: COCC1CCCN1Cc1ccc(-c2cc3ncnc(Nc4ccc5[nH]ccc5c4)c3s2)cc1 (stereo unspecified)
The melting point of the first is higher: 205 to 207 °C for the first, 161 to 177 °C for the second.

Compared with N#Cc1ccc(-c2ccc(Br)o2)cc1, Cc1ccc(-c2ccc3c(c2)CC[C@H]2N(C)C(=O)CC[C@]32C)cc1 is higher in melting point: 94 to 94.5 °C for the first, 178 °C for the second.

First: O=C(O)Cc1cccc2c(=O)cc(-c3cccc(F)c3)oc12
Second: CCCOC(=O)Cc1ccc2c(c1)C(=O)c1ccccc1CO2
The melting point of the first is higher: 208 to 211 °C for the first, 30 to 32 °C for the second.

First: CCCC12CCC3=C(CCc4cc(O)ccc43)C1=CCC2=O (stereo unspecified)
Second: CCOC(=O)c1cnc2ccc3nc(Cl)sc3c2c1O
The melting point of the first is lower: 149 to 155 °C for the first, greater than 300 °C for the second.

First: CCOC(=O)c1cn(C2CC2)c2c(Cl)c(F)c(F)cc2c1=O
Second: O=C(O)[C@H]1C[C@@H](C(=O)O)c2c(Cl)cc(Cl)cc2N1 (relative stereo)
The melting point of the first is lower: 154 to 157 °C for the first, 225 to 227 °C for the second.

First: CC(=O)SC(CC(=O)c1ccc(Cl)cc1Cl)C(=O)O (stereo unspecified)
Second: O=C(O)C=Cc1cc([N+](=O)[O-])c(F)cc1Cl
The melting point of the first is lower: 73 to 74.5 °C for the first, 164 to 171 °C for the second.

First: Cc1c2n(c3ccccc13)C(=O)C(C(O)c1ncn(C(c3ccccc3)(c3ccccc3)c3ccccc3)c1C)CC2 (stereo unspecified)
Second: CS(=O)(=O)OC1CC(n2ccc(=O)[nH]c2=O)OC1COC(c1ccccc1)(c1ccccc1)c1ccccc1 (stereo unspecified)
The melting point of the first is higher: 153 to 169 °C for the first, 106 to 108 °C for the second.

Compared with O=S(=O)(c1ccccc1)c1nccc2c1CCCC2, C(=C1CSCC2=C1N=C1SCCN1C2c1ccccc1)c1ccccc1 (stereo unspecified) is higher in melting point: 109 to 112 °C for the first, 195 to 196 °C for the second.

First: CCS(=O)(=O)Nc1cc(Cc2c[nH]cn2)ccc1Cl
Second: CSC(=Nc1c(C)nn(C)c1C)Nc1cc(Cl)ccc1C
The melting point of the first is higher: 159 to 160 °C for the first, 134 to 135 °C for the second.

Compared with Cn1c(CNCC2(C)COC2)cc2cc(NC(=O)c3ccc(OCC4CC4)cc3)ccc21, OC(COc1ccc(F)c(F)c1)CN1CCC(NCc2nc3ccccc3s2)CC1 (single isomer, unassigned; (+)) is lower in melting point: 154 to 155 °C for the first, 65.8 °C for the second.

First: CCCN(CCC)C1Cc2cc3c(cc2C1)C(=O)N(Cc1ccccn1)C3=O
Second: CCN(CC)CCNC(=O)N1CCc2cc(OC)c(OC)cc2C1c1ccccc1 (stereo unspecified)
The melting point of the first is higher: 130 to 135 °C for the first, 97 to 98 °C for the second.

Compared with O=C(O)[C@H](Cc1ccc(C(F)(F)F)cc1)[C@@H](O)c1ccc(F)c(F)c1 (racemic), CC(C)(C)OC(=O)Nc1ccc(C#Cc2ccc(F)cc2F)cc1[N+](=O)[O-] is higher in melting point: 76 to 77 °C for the first, 134 to 136 °C for the second.

Compared with O=C(O)CCCCC(=O)NCCc1ccccc1, Cn1c(I)nc2c(C(F)(F)F)nc(NCCc3ccccc3)nc21 is higher in melting point: 110 to 111 °C for the first, 139 to 142 °C for the second.

First: O=c1[nH]c2cc(F)c(NCC3COc4ccccc4C3)cc2o1 (stereo unspecified)
Second: O=C1O[C@H](C(Cl)(Cl)Cl)N2CCC[C@@]12Cc1ccccc1
The melting point of the first is higher: 223 to 224 °C for the first, 75 to 77 °C for the second.

Compared with NC(=O)c1cccc(OCCCCC/C=C\c2ccc(Cl)o2)c1, CC(=O)Nc1ccc(Sc2ccccc2)cc1 is higher in melting point: 53 to 56 °C for the first, 142 to 144 °C for the second.

First: CCOC(=O)COc1c(CO)c(C(F)(F)F)nn1C
Second: O=C(c1cccc(C(F)(F)F)c1F)N1CCN(Cc2cncc(Nc3cc[nH]n3)n2)CC1
The melting point of the first is lower: 57 to 59 °C for the first, 160 to 163 °C for the second.

First: COc1ccc(C=O)c(OC)c1Cl
Second: COc1cc(C(=O)N2CCC(CCN3CCC(Nc4nc5ccccc5n4Cc4ccc(Cl)s4)CC3)(c3ccc(F)c(F)c3)C2)cc(OC)c1OC (stereo unspecified)
The melting point of the first is lower: 107 to 108 °C for the first, 110 to 120 °C for the second.

First: N#CC=Cc1ccc(F)cc1
Second: Nc1ccn([C@H]2C=C[C@@H](O)CC2)c(=O)n1 (racemic)
The melting point of the first is lower: 64 to 65 °C for the first, 224 to 226 °C for the second.

C=CCNc1c(C(=O)O)cnc2cn[nH]c12 showed a melting point of 240 to 242 °C.
